Laboratory results published in the NIST ThermoML archive (doi:10.1021/je049605r).
± gives the expanded uncertainty stated by the source.

Tests used:
[1] = 293.2 K; 101.33 kPa; Liquid
[2] = refractive index (Na D-line) (dimensionless); settings: 293.2 K; 101.33 kPa; Liquid; Standard Abbe refractometry

Compound | mass density [1] | refractive index [2]
Clc1ccccc1 [chlorobenzene] | 1106.2 ± 0.4 kg/m3 | 1.5244 ± 0.0007
CC(=O)OC1CCCCC1 [cyclohexyl ethanoate] | 970.3 ± 0.3 kg/m3 | 1.441 ± 0.0007

The next lines start with the values.

mass density [1] | refractive index [2] | Compound
963.5 ± 9.6 kg/m3 | 1.4648 ± 0.0007 | OC1CCCCC1 [cyclohexanol]
 | 1.3326 ± 0.0007 | O [water]
1055.1 ± 0.6 kg/m3 | 1.4525 ± 0.0007 | OCC1CCCO1 (stereo unspecified) [2-tetrahydrofurylmethanol]
779.3 ± 0.6 kg/m3 | 1.4269 ± 0.0007 | C1CCCCC1 [cyclohexane]
